Experimental findings from PubChem BioAssay (NCI) are described below.

Among the test systems are OVCAR-8 ovarian; ACHN renal; HOP-92 NSCLC; A549 NSCLC; SK-OV-3 ovarian; MDA-N; BT-549 breast; SF-539 CNS; MCF7 breast; LXFL 529 NSCLC; HS 578T breast; UO-31 renal; UACC-62 melanoma; HT29 colon; HCC-2998 colon; NCI-H226 lung; EKVX NSCLC; OVCAR-3 ovarian; NCI-H23 lung; HL-60(TB) leukemia.
Holding throughout (test): NCI tumour cell line growth inhibition, 48 h

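Grown in 96-well plates, cells were treated for 48 hours with each compound at five concentrations. Insufficient inhibition: endpoint recorded as highest concentration tested. Definition used: TGI = concentration required for complete inhibition of growth.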 Bounds are passed on as bounds.

`COc1cc2c(c(OC)c1OC)-c1ccc(OC)c(=O)cc1C(NC(=O)COc1ccccc1)CC2` (configuration not stated): the TGI was 13.1 µM with OVCAR-8 ovarian; greater than 100 µM in the test on ACHN renal; 2.91 µM in the test with HOP-92 NSCLC; greater than 100 µM in the test with A549 NSCLC; 0.766 µM in the test on SK-OV-3 ovarian; less than 10 nM in the test on MDA-N. The TGI with BT-549 breast was 5.12 µM; in the test on SF-539 CNS it was less than 10 nM; in the test on MCF7 breast it was greater than 49.4 µM; with LXFL 529 NSCLC it was greater than 100 µM; in the test with HS 578T breast it was greater than 31.6 µM; in the test with UO-31 renal, greater than 100 µM. The TGI in the test on UACC-62 melanoma was greater than 100 µM; in the test on HT29 colon, less than 146 nM; in the test on HCC-2998 colon, 1040 nM; in the test on NCI-H226 lung, 423 nM; in the test on EKVX NSCLC, greater than 100 µM; in the test with OVCAR-3 ovarian it was less than 35.5 nM.
On to `COc1cc(C(=O)NC2CCc3cc(OC)c(OC)c(OC)c3-c3ccc(OC)c(=O)cc32)cc(OC)c1OC` (configuration not stated), for which the TGI in the test with NCI-H23 lung was 12.8 µM; with OVCAR-8 ovarian it was greater than 46.1 µM; in the test with ACHN renal it was greater than 100 µM; in the test on HOP-92 NSCLC, 3.62 µM; with A549 NSCLC it was greater than 100 µM; in the test with SK-OV-3 ovarian, 20.9 µM. Also, the TGI is 96.1 nM in the test with MDA-N; 68.9 nM in the test with SF-539 CNS; greater than 100 µM in the test on MCF7 breast; 44.2 µM with LXFL 529 NSCLC; 262 nM in the test on HL-60(TB) leukemia; greater than 21.1 µM in the test on HS 578T breast. Further, the TGI in the test with UO-31 renal is greater than 98 µM; in the test on UACC-62 melanoma, 45.9 µM; with HT29 colon, 2290 nM; in the test with HCC-2998 colon it was 1160 nM; in the test on NCI-H226 lung, 3310 nM; in the test on EKVX NSCLC, greater than 100 µM. This molecule also registered a TGI in the test on OVCAR-3 ovarian of 261 nM.
